Reference: patent US8673886B2, “Use of nifuratel to treat infections caused by Atopobium species” (Polichem SA, priority 2009, dated 2014)
Values after ≈ are worked out from the molar mass of the structure shown. Read-outs that look alike come from different tables or passages of the source.

System: Atopobium vaginae
Assay: MIC determination on Brucella agar, susceptibility of Atopobium vaginae strains
Type: cell-based
Conditions: for MIC: Fannyhessea vaginae
[1] = all tested strains of Atopobium vaginae

Row | MIC (CCUG43049, Atopobium vaginae strain CCUG 43049, Brucella agar, anaerobic, read-out: MIC) [µg/mL] | MIC (CCUG44061, Atopobium vaginae strain CCUG 44061, Brucella agar, anaerobic, read-out: MIC) [µg/mL] | MIC (CCUG44116, Atopobium vaginae strain CCUG 44116, Brucella agar, anaerobic, read-out: MIC) [µg/mL] | MIC (CCUG44125, Atopobium vaginae strain CCUG 44125, Brucella agar, anaerobic, read-out: MIC) [µg/mL] | MIC (CCUG44156, Atopobium vaginae strain CCUG 44156, Brucella agar, anaerobic, read-out: MIC) [µg/mL] | MIC (CCUG44258, Atopobium vaginae strain CCUG 44258, Brucella agar, anaerobic, read-out: MIC) [µg/mL] | MIC (CCUG48515, Atopobium vaginae strain CCUG 48515, Brucella agar, anaerobic, read-out: MIC) [µg/mL] | MICs (range over all strains) [1] [µg/mL] | Structure (SMILES) | susceptibility of Atopobium to the agent (conclusion from MIC) [1] | MIC [µg/mL] | MIC (CCUG42099) [µg/mL] | MIC (CCUG43049) [µg/mL] | MIC (CCUG44061) [µg/mL] | MIC (CCUG44116) [µg/mL] | MIC (CCUG44125) [µg/mL] | MIC (CCUG44156) [µg/mL] | MIC (CCUG44258) [µg/mL] | MIC (CCUG48515) [µg/mL]
1 | 16 (≈ 93.5 µM) | 64 (≈ 374 µM) | 32 (≈ 187 µM) | 16 (≈ 93.5 µM) | 8 (≈ 46.7 µM) | 32 (≈ 187 µM) | 32 (≈ 187 µM) | 8 to 256 | Cc1ncc([N+](=O)[O-])n1CCO [Metronidazole, metronidazole] | resistant |  |  |  |  |  |  |  |  | 
2 |  |  |  |  |  |  |  |  | CSCC1CN(/N=C/c2ccc([N+](=O)[O-])o2)C(=O)O1 (stereo not shown) [Nifuratel, nifuratel] | sensitive | 1 (≈ 3.51 µM) | 0.5 (≈ 1.75 µM) | 0.25 (≈ 0.876 µM) | 1 (≈ 3.51 µM) | 0.5 (≈ 1.75 µM) | 0.25 (≈ 0.876 µM) | 0.125 (≈ 0.438 µM) | 0.5 (≈ 1.75 µM) | 0.5 (≈ 1.75 µM)
